Measurements from article PMC8318231, “Rate-of-Kill (RoK) assays to triage large compound sets for Chagas disease drug discovery: Application to GSK Chagas Box” (PLoS Neglected Tropical Diseases, 2021).

How the values were obtained:
[1] = system: H9c2 (rat cardiomyocytes); experiment: RoK assay, number of host cells nuclei (drug-related cytotoxicity, H9c2 output, Cmin_Tox); settings: H9c2 host cells
How it was run: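 Host-cell toxicity is read as DRAQ5-stained nuclei counts from automated confocal imaging of T. cruzi-infected H9c2 cells, tracked across time at each concentration. Cmin_Tox denotes the lowest compound concentration dropping host cell number under 50% of initial cell density.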

[2] = system: T. cruzi Tulahuen trypomastigotes; experiment: T. cruzi trypomastigote assay (Cell Titer-Glo viability, ATP luminescence); format: cell-based, Trypanosoma cruzi; settings: for Trypomastigotes pIC50 48 hours: 48 hours incubation; for Trypomastigotes pIC50 48 hours / Trypomastigotes pIC50 72 hours: pIC50 = -log10 IC50 in molar units; for Trypomastigotes pIC50 72 hours: 72 hours incubation; for 72 pIC50 (trypomastigotes, raw data of Fig 1D): 72 hours, plotted values, censored values given without sign; for 48 pIC50 / 72 pIC50: trypomastigote assay; for 48 pIC50: 48 h; for 72 pIC50: 72 h
How it was run: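 Compounds were tested in dose response or once at a final 5 μM against 5 × 10^4 trypomastigotes per well (DMEM, 2% FBS), collected on days 5–8 from LLC-MK2 infected cultures. ATP luminescence via CellTiter-Glo reports live parasites; DMSO defines 0% and cell-free wells 100% effect.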

[3] = system: TcCYP51; settings: formerly reported; cited from earlier work

| Compound | Cmin_Tox [1] [µM] | Trypomastigotes pIC50 48 hours [2] | Trypomastigotes pIC50 72 hours [2] | 72 pIC50 (trypomastigotes, raw data of Fig 1D) [2] | 48 pIC50 ([2]; figure 1A) | 72 pIC50 ([2]; figure 1A) | 72 pIC50 ([2]; figure 1B) | CYP51 pIC50 [3] |
| --- | --- | --- | --- | --- | --- | --- | --- | --- |
| O=C(NCC1CCCCC1)c1cc(=O)c2ccccc2o1 [TCMDC-123621] | 50.0 | 5 | 5 | 5 | 5 | 5 | 5 | < 4 |
| Cl.O=c1cc(NCCCNC2CCOc3c(I)cc(Cl)cc32)[nH]c2ccccc12 (stereo not drawn) [TCMDC-139489] | 50.0 | 5.8 | 6 | – | – | – | – | 4.8 |
| Cc1cccc(N2CCCN(Cc3c[nH]c4ccccc34)CC2)n1 [TCMDC-143185] | 5.6 | 6.7 | – | – | – | – | – | < 4 |
| O=C(NCCc1cccnc1)c1ccc(-c2ccccc2F)o1 [TCMDC-143190] | >50 | < 4.3 | < 4.3 | < 4.3 | < 4.3 | < 4.3 | < 4.3 | 7.2 |
| COc1ccc(NS(=O)(=O)c2cc(-c3cc(C)[nH]n3)ccc2C)cc1OC [TCMDC-143194] | 18.5 | 4.7 | 5.2 | – | – | – | – | 4.4 |
| O=S(=O)(c1cccc(CSc2nnc(-c3ccc4c(c3)OCO4)o2)c1)N1CCOCC1 [TCMDC-143197] | >50 | < 4.3 | < 4.3 | < 4.3 | < 4.3 | < 4.3 | < 4.3 | 4.9 |
| CC1CN(S(=O)(=O)c2ccc(NC(=O)c3cc(C4CC4)nc4c3cnn4C(C)C)cc2)CC(C)O1 (stereo not drawn) [TCMDC-143200] | >50 | 5.3 | 4.8 | – | – | – | – | < 4 |
| O=C(NCCc1cccnc1)c1csc(-c2ccccc2)n1 [TCMDC-143203] | >50 | < 4.3 | < 4.3 | < 4.3 | < 4.3 | < 4.3 | < 4.3 | 7.2 |
| CC(=O)Nc1nc(-c2cc(C)ccc2C)c(C)s1 [TCMDC-143207] | >50 | < 4.3 | < 4.3 | < 4.3 | < 4.3 | < 4.3 | < 4.3 | < 4 |
| Cn1nccc1-c1cc(OC(CN)c2ccccc2)cnc1-c1ccco1.O=C(O)C(F)(F)F.O=C(O)C(F)(F)F (stereo not drawn) [TCMDC-143221] | >50 | 4.4 | < 4.3 | – | – | – | – | 7.2 |
| CS(=O)(=O)c1ccc(CC(=O)Nc2nc(-c3ccc(Cl)s3)cs2)cc1 [TCMDC-143224] | >50 | < 4.3 | < 4.3 | < 4.3 | < 4.3 | < 4.3 | < 4.3 | < 4 |
| CCN(C)Cc1ccc(N2CCC(NS(=O)(=O)c3ccc4c(c3)CCO4)CC2)nc1 [TCMDC-143244] | >50 | < 4.3 | < 4.3 | < 4.3 | < 4.3 | < 4.3 | < 4.3 | < 4 |
| COc1ccc(S(=O)(=O)NC(C)C)cc1Nc1ncc(-c2cccc(F)c2)cn1 [TCMDC-143248] | >50 | < 4.3 | < 4.3 | < 4.3 | < 4.3 | < 4.3 | < 4.3 | < 4 |
| O=C(NCCc1ccccc1Cl)c1cccn1-c1cccnc1 [TCMDC-143253] | >50 | < 4.3 | < 4.3 | < 4.3 | < 4.3 | < 4.3 | < 4.3 | 7.1 |
| COc1ccc(S(=O)(=O)Nc2ccccc2OC)cc1NC(=O)CCCc1c[nH]c2ccccc12 [TCMDC-143256] | >50 | 5 | 4.9 | – | – | – | – | < 4 |
| COc1ccc2c(Cl)c(C(=O)N3CCC3)sc2c1Cl [TCMDC-143262] | >50 | 6.2 | 6.4 | – | – | – | – | < 4 |
| CCN(CC)S(=O)(=O)c1ccc(C(=O)Nc2cc(C)nn2-c2nc(C)c(C)c(=O)[nH]2)cc1 [TCMDC-143273] | >50 | 6.2 | 6.3 | – | – | – | – | < 4 |
| COc1ccc(C(C)(C)C)cc1S(=O)(=O)n1ccnc1 [TCMDC-143275] | >50 | < 4.3 | < 4.3 | < 4.3 | < 4.3 | < 4.3 | < 4.3 | 8.1 |
| CCCn1c(NC(=O)Cc2ccc(Cl)cc2)nc2ccccc21 [TCMDC-143279] | >50 | 5.9 | 6 | – | – | – | – | < 4 |
| CCC(=O)Nc1ccc(C(=O)Nc2ccccc2-c2ccccc2)cc1 [TCMDC-143286] | >50 | 5.9 | 6 | – | – | – | – | < 4 |
| Cc1cccnc1CN1CCN(CCCOc2ccc(-c3ccc(C(N)=O)cc3)cc2)CC1 [TCMDC-143291] | >50 | 4.8 | 4.4 | – | – | – | – | < 4 |
| COc1ccc(C(C)N(C)c2ncc3c(N)nc(N)nc3n2)cc1F (stereo not drawn) [TCMDC-143298] | >50 | 6.5 | 6.7 | – | – | – | – | < 4 |
| O=C(NCc1ccncc1)c1ccccc1N1CCCN(C(=O)Cc2ccc(F)c(F)c2)CC1.O=C(O)C(F)(F)F.O=C(O)C(F)(F)F [TCMDC-143300] | >50 | < 4.3 | < 4.3 | < 4.3 | < 4.3 | < 4.3 | < 4.3 | 7.1 |
| O=C(O)C(F)(F)F.O=c1ccc2ccc(F)c3c2n1C[C@H]3CN1CCC(NCc2cc3ccccc3o2)CC1 [TCMDC-143301] | >50 | 4.5 | 4.4 | – | – | – | – | 4.5 |
| CS(=O)(=O)NC1CCC(Oc2cc3cnccc3cc2-c2ccsc2)CC1.O=C(O)C(F)(F)F (stereo not drawn) [TCMDC-143302] | >50 | 4.5 | < 4.3 | – | – | – | – | 7.6 |
| Cc1c(C(=O)NCCCCn2ccnc2)oc2c(C)cccc12 [TCMDC-143304] | >50 | < 4.3 | < 4.3 | < 4.3 | < 4.3 | < 4.3 | < 4.3 | 7 |
| COc1ccc(C(=O)Nc2cc(C(F)(F)F)ccc2N2CCOCC2)c(OC)c1 [TCMDC-143310] | >50 | 5.8 | 6 | – | – | – | – | < 4 |
| FC(F)(F)c1cc(C2CCCN(Cc3c[nH]c4ccccc34)C2)nc2ncnn12.O=C(O)C(O)C(O)C(=O)O (stereo not drawn) [TCMDC-143311] | >50 | 4.9 | 5.2 | – | – | – | – | – |
| COc1ccc(NS(=O)(=O)c2cc(NC(=O)Cc3ccc(C)cc3)ccc2N2CCOCC2)cc1 [TCMDC-143313] | 0.6 | 5.9 | 6.3 | – | – | – | – | < 4 |
| COc1cc(NC(=O)Nc2cccc(CNC(=O)OC3CCCCC3)c2)ccc1-c1cnco1 [TCMDC-143376] | 16.7 | – | 4.9 | – | – | – | – | 4.6 |
